From ChEMBL document CHEMBL3045389, “Synthesis and insect antifeedant activity of plumbagin derivatives” (2012)

What was measured:
[1] = tested on: Spodoptera litura; assay: Antifeedant activity against prestarved healthy third-instar larval stage of Spodoptera litura assessed as area of leaf consumed after 6 hr by conventional no-choice leaf-disk bioassay; format: functional
[2] = tested on: Achaea janata; assay: Antifeedant activity against prestarved healthy third-instar larval stage of Achaea janata assessed as area of leaf consumed after 6 hr by conventional no-choice leaf-disk bioassay; format: functional

SMILES | ED50 [1] [microg/cm2] | ED50 [2] [microg/cm2]
CCCCCCCCNC1=C(C)C(=O)c2cccc(OC)c2C1=O | >500 | 44.76
C/C=C(\C)C(=O)O[C@H]1C[C@@H](OC(C)=O)[C@@]2(C(=O)OC)CO[C@H]3[C@@H](O)[C@@](C)([C@]45O[C@@]4(C)[C@@H]4C[C@H]5O[C@@H]5OC=C[C@@]54O)[C@H]4[C@]1(CO[C@]4(O)C(=O)OC)[C@@H]32 [AZADIRACHTIN A] | 0.89 | 0.72
CCNC1=C(C)C(=O)c2cccc(OC)c2C1=O | >500 | 24.41
CCCCCCCCCCNC1=C(C)C(=O)c2cccc(OC)c2C1=O | 31.109 | 30.25
CCCNC1=C(C)C(=O)c2cccc(OC)c2C1=O | >500 | >500
CCCCNC1=C(C)C(=O)c2cccc(OC)c2C1=O | 64.08 | >500
C=CCNC1=C(C)C(=O)c2cccc(OC)c2C1=O | 31.22 | 13.51
CCCCCCNC1=C(C)C(=O)c2cccc(OC)c2C1=O | 278.34 | 73.31
COc1cccc2c1C(=O)C(NCc1ccccc1)=C(C)C2=O | >500 | >500
COc1cccc2c1C(=O)C(NCc1ccc(C(F)(F)F)cc1)=C(C)C2=O | >500 | 21.82
CCCCCCCCCCCCCCCCNC1=C(C)C(=O)c2cccc(OC)c2C1=O | 16.77 | 64.23
CCCCCCCCCCCCNC1=C(C)C(=O)c2cccc(OC)c2C1=O | >500 | 59.62
CCCCCCCC/C=C/CCCCCCCCNC1=C(C)C(=O)c2cccc(OC)c2C1=O | 180.36 | 26.49
CCCCCCCCCNC1=C(C)C(=O)c2cccc(OC)c2C1=O | 32.5 | 24.04
CC1=CC(=O)c2c(O)cccc2C1=O [PLUMBAGIN] | 43.71 | 23.97
COc1cccc2c1C(=O)C(NCc1ccc(F)cc1)=C(C)C2=O | 302.32 | 51.091
COc1ccc(CNC2=C(C)C(=O)c3cccc(OC)c3C2=O)cc1 | >500 | >500
